Measurements taken from the supplement of paper PMC8960247.
Structures can show the parent of a compound that is named as a salt. ± gives the standard error.

System: 621-103 (TSC2-rescued)
Assay: relative viability vs DMSO; higher = less cytotoxic
Details: 1 µM; serum: 10% FBS; 72 h
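Note: immortalized renal angiomyolipoma cells stably carrying empty vector or TSC2, dosed in 384-well plates in DMEM, viability normalized to vehicle-treated wells within each plate.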

With `CC(=O)O[C@H]1CC[C@@]2(C)C(=CC[C@@H]3[C@@H]2CC[C@]2(C)C(c4cccnc4)=CC[C@@H]32)C1` [Abiraterone Acetate (CB7630)] as the compound, how does the relative viability read?
Its relative viability is 105 ± 2%.

How did the relative viability turn out when `CC(=O)Nc1ccccc1` [Acetanilide] was run?
Its relative viability is 103 ± 2.6%.

`Nc1[nH]cnc2ncnc1-2` [Adenine HCl] was tested. Which relative viability did it give?
Its relative viability is 96.7 ± 2.2%.

How did the relative viability turn out when `Nc1[nH]cnc2ncnc1-2` [Adenine] was run?
The relative viability was 104.9 ± 0.9%.

For `COc1cccc2c1C(=O)c1c(O)c3c(c(O)c1C2=O)C[C@@](O)(C(=O)CO)C[C@@H]3O[C@H]1C[C@H](N)[C@H](O)[C@H](C)O1` [Adriamycin], which relative viability is on record?
The relative viability was 13.01 ± 0.075%.

How did the relative viability turn out when `NCCCC(O)(P(=O)(O)O)P(=O)(O)O` [Alendronate Sodium] was run?
Its relative viability is 104 ± 3.5%.

Which relative viability does the source give for `COCCCOc1cc(C[C@@H](C[C@H](N)[C@@H](O)C[C@H](C(=O)NCC(C)(C)C(N)=O)C(C)C)C(C)C)ccc1OC` [Aliskiren hemifumarate] here?
Its relative viability is 96.59 ± 0.53%.

Which relative viability does the source give for `O=C1c2ccccc2C(=O)c2c1ccc(O)c2O` [Alizarin] here?
Its relative viability is 95.2 ± 4.5%.

With `Oc1ncnc2[nH]ncc12` [Allopurinol] as the compound, how does the relative viability read?
Its relative viability is 98.2 ± 1.6%.

With `NC12CC3CC(CC(C3)C1)C2` [Amantadine HCl (Symmetrel)] as the compound, how does the relative viability read?
The relative viability was 108 ± 1.8%.

Which relative viability does the source give for `CC(NC(C)(C)C)C(=O)c1cccc(Cl)c1` (centres undefined) [Amfebutamone] here?
The relative viability was 102 ± 2.8%.

`CCN1CCCC1CNC(=O)c1cc(S(=O)(=O)CC)c(N)cc1OC` (centres undefined) [Amisulpride] was tested. Which relative viability did it give?
The relative viability was 113 ± 4.8%.

For `CCOC(=O)C1=C(COCCN)NC(C)=C(C(=O)OC)C1c1ccccc1Cl` (centres undefined) [Amlodipine besylate], which relative viability is on record?
Its relative viability is 94.5 ± 5.2%.

Which relative viability does the source give for `CC(C)(C#N)c1cc(Cn2cncn2)cc(C(C)(C)C#N)c1` [Anastrozole (Arimidex)] here?
The relative viability was 99.407 ± 0.097%.

Which relative viability does the source give for `N#CC1(c2ccc(NC(=O)c3cccnc3NCc3ccncc3)cc2)CCCC1` [Apatinib] here?
Its relative viability is 107 ± 7.4%.

With `O=c1cc(-c2ccc(O)cc2)oc2cc(O)cc(O)c12` [Apigenin] as the compound, how does the relative viability read?
Its relative viability is 111 ± 4.9%.

With `COc1ccc(-n2nc(C(N)=O)c3c2C(=O)N(c2ccc(N4CCCCC4=O)cc2)CC3)cc1` [Apixaban] as the compound, how does the relative viability read?
The relative viability was 104 ± 3.3%.

For `COc1cc(OC)c(OC)cc1C=O` [Asaraldehyde], which relative viability is on record?
Its relative viability is 102.5 ± 0.13%.

How did the relative viability turn out when `CN1CC2c3ccccc3Oc3ccc(Cl)cc3C2C1` (centres undefined) [Asenapine maleate] was run?
The relative viability was 103 ± 3.5%.

`CN1[C@@H]2CC[C@H]1C[C@@H](OC(=O)C(CO)c1ccccc1)C2` (some centres undefined) [Atropine sulfate monohydrate] was tested. Which relative viability did it give?
Its relative viability is 89.9 ± 3.7%.

Same assay, conditions: 10 µM; serum: 10% FBS; 72 h

With `CC1(C)CCC(c2ccc(Cl)cc2)=C(CN2CCN(c3ccc(C(=O)NS(=O)(=O)c4ccc(N[C@H](CCN5CCOCC5)CSc5ccccc5)c(S(=O)(=O)C(F)(F)F)c4)cc3)CC2)C1` [ABT-263 (Navitoclax)] as the compound, how does the relative viability read?
Its relative viability is 55.33 ± 0.17%.

`COc1ccc(S(=O)(=O)Nc2cccnc2Nc2ccc(O)cc2)cc1` [ABT-751] was tested. Which relative viability did it give?
Its relative viability is 44.8 ± 0.75%.

For `Cc1ccc(F)c(NC(=O)Nc2ccc(-c3cccc4[nH]nc(N)c34)cc2)c1` [ABT-869], which relative viability is on record?
Its relative viability is 80.4 ± 3.2%.

For `C[C@]1(c2nc3c(C(N)=O)cccc3[nH]2)CCCN1` [ABT-888], which relative viability is on record?
Its relative viability is 103 ± 1.3%.

For `CC(C)(C)c1cc(NC(=O)Nc2ccc(-c3cn4c(n3)sc3cc(OCCN5CCOCC5)ccc34)cc2)no1` [AC-220], which relative viability is on record?
Its relative viability is 44.7 ± 1.2%.

Which relative viability does the source give for `N#C/C(=C\c1ccc(O)c(O)c1)C(=O)NCc1ccccc1` [AG-490] here?
The relative viability was 83.8 ± 3.9%.

Which relative viability does the source give for `Cc1csc(-c2nnc(Nc3ccc(Oc4ncccc4-c4ccnc(N)n4)cc3)c3ccccc23)c1` [AMG900] here?
The relative viability was 73.6 ± 1.5%.

For `CC(C)[C@H](C(=O)Nc1ccc(C(=O)NO)cc1)c1ccccc1` [AR-42 (HDAC-42)], which relative viability is on record?
Its relative viability is 3.41 ± 0.081%.

With `Clc1ccc(C2(c3ccc(-c4cn[nH]c4)cc3)CCNCC2)cc1` [AT7867] as the compound, how does the relative viability read?
The relative viability was 18.5 ± 2.6%.

Which relative viability does the source give for `COc1cc2nccc(Oc3ccc(NC(=O)Nc4cc(C)on4)c(Cl)c3)c2cc1OC` [AV-951(Tivozanib)] here?
The relative viability was 48.2 ± 1.3%.

For `Cc1cc(Nc2nc(N[C@@H](C)c3ccc(F)cc3)c(C#N)cc2F)n[nH]1` [AZ 960], which relative viability is on record?
Its relative viability is 16.3 ± 0.85%.

For `CCN(CCO)CCCOc1ccc2c(Nc3cc(CC(=O)Nc4cccc(F)c4)[nH]n3)ncnc2c1` [AZD1152-HQPA (Barasertib)], which relative viability is on record?
Its relative viability is 85.5 ± 2.6%.

How did the relative viability turn out when `Cc1cc(Nc2nc(N[C@@H](C)c3ncc(F)cn3)ncc2Cl)[nH]n1` [AZD1480] was run?
The relative viability was 53.6 ± 1.4%.

Which relative viability does the source give for `O=C(c1cc(Cc2n[nH]c(=O)c3ccccc23)ccc1F)N1CCN(C(=O)C2CC2)CC1` [AZD2281 (Olaparib)] here?
Its relative viability is 98.4 ± 4.5%.

For `Cc1ncc(-c2ccnc(Nc3ccc(S(C)(=O)=O)cc3)n2)n1C(C)C` [AZD5438], which relative viability is on record?
Its relative viability is 27.7 ± 0.92%.

How did the relative viability turn out when `Cn1cnc2c(F)c(Nc3ccc(Br)cc3Cl)c(C(=O)NOCCO)cc21` [AZD6244 (Selumetinib)] was run?
The relative viability was 89 ± 2.5%.

`COc1ccc(-c2ccc3c(N4CCOC[C@@H]4C)nc(N4CCOC[C@@H]4C)nc3n2)cc1CO` [AZD8055] was tested. Which relative viability did it give?
Its relative viability is 34.3 ± 1.4%.

`Cc1cc(C(=O)NOCCO)c(Nc2ccc(I)cc2F)n(C)c1=O` [AZD8330] was tested. Which relative viability did it give?
Its relative viability is 68.4 ± 0.99%.

Which relative viability does the source give for `CNC(=O)CN1CCC(Oc2cc3c(Nc4cccc(Cl)c4F)ncnc3cc2OC)CC1` [AZD8931] here?
Its relative viability is 83.2 ± 3.3%.

`CC(=O)O[C@H]1CC[C@@]2(C)C(=CC[C@@H]3[C@@H]2CC[C@]2(C)C(c4cccnc4)=CC[C@@H]32)C1` [Abiraterone Acetate (CB7630)] was tested. Which relative viability did it give?
The relative viability was 102 ± 3.2%.

For `CC(=O)Nc1ccccc1` [Acetanilide], which relative viability is on record?
The relative viability was 91.3 ± 1.3%.

Which relative viability does the source give for `Nc1[nH]cnc2ncnc1-2` [Adenine HCl] here?
The relative viability was 120 ± 2.1%.

Which relative viability does the source give for `Nc1[nH]cnc2ncnc1-2` [Adenine] here?
Its relative viability is 117 ± 1.5%.

Which relative viability does the source give for `COc1cccc2c1C(=O)c1c(O)c3c(c(O)c1C2=O)C[C@@](O)(C(=O)CO)C[C@@H]3O[C@H]1C[C@H](N)[C@H](O)[C@H](C)O1` [Adriamycin] here?
The relative viability was 12 ± 0.24%.

`NCCCC(O)(P(=O)(O)O)P(=O)(O)O` [Alendronate Sodium] was tested. Which relative viability did it give?
Its relative viability is 105 ± 2.9%.

For `COCCCOc1cc(C[C@@H](C[C@H](N)[C@@H](O)C[C@H](C(=O)NCC(C)(C)C(N)=O)C(C)C)C(C)C)ccc1OC` [Aliskiren hemifumarate], which relative viability is on record?
The relative viability was 98.8 ± 2.7%.

Which relative viability does the source give for `O=C1c2ccccc2C(=O)c2c1ccc(O)c2O` [Alizarin] here?
The relative viability was 97.3 ± 1.1%.

Which relative viability does the source give for `Oc1ncnc2[nH]ncc12` [Allopurinol] here?
Its relative viability is 100 ± 1.9%.

How did the relative viability turn out when `NC12CC3CC(CC(C3)C1)C2` [Amantadine HCl (Symmetrel)] was run?
The relative viability was 96.89 ± 0.4%.

For `CC(NC(C)(C)C)C(=O)c1cccc(Cl)c1` (centres undefined) [Amfebutamone], which relative viability is on record?
Its relative viability is 102 ± 1.2%.

How did the relative viability turn out when `CCN1CCCC1CNC(=O)c1cc(S(=O)(=O)CC)c(N)cc1OC` (centres undefined) [Amisulpride] was run?
Its relative viability is 114 ± 3.6%.

With `CCOC(=O)C1=C(COCCN)NC(C)=C(C(=O)OC)C1c1ccccc1Cl` (centres undefined) [Amlodipine besylate] as the compound, how does the relative viability read?
The relative viability was 57.2 ± 5%.

`CC(C)(C#N)c1cc(Cn2cncn2)cc(C(C)(C)C#N)c1` [Anastrozole (Arimidex)] was tested. Which relative viability did it give?
Its relative viability is 99.4 ± 2.6%.

For `N#CC1(c2ccc(NC(=O)c3cccnc3NCc3ccncc3)cc2)CCCC1` [Apatinib], which relative viability is on record?
Its relative viability is 103.7 ± 0.61%.

`O=c1cc(-c2ccc(O)cc2)oc2cc(O)cc(O)c12` [Apigenin] was tested. Which relative viability did it give?
The relative viability was 125 ± 4%.

How did the relative viability turn out when `COc1ccc(-n2nc(C(N)=O)c3c2C(=O)N(c2ccc(N4CCCCC4=O)cc2)CC3)cc1` [Apixaban] was run?
Its relative viability is 105 ± 4.6%.

With `COc1cc(OC)c(OC)cc1C=O` [Asaraldehyde] as the compound, how does the relative viability read?
The relative viability was 96.06 ± 0.3%.

Which relative viability does the source give for `CN1CC2c3ccccc3Oc3ccc(Cl)cc3C2C1` (centres undefined) [Asenapine maleate] here?
The relative viability was 88.47 ± 0.57%.

How did the relative viability turn out when `CN1[C@@H]2CC[C@H]1C[C@@H](OC(=O)C(CO)c1ccccc1)C2` (some centres undefined) [Atropine sulfate monohydrate] was run?
The relative viability was 80.3 ± 5%.
